Consider four molecules from publication PMC8550792, “Evolution of kinase polypharmacology across HSP90 drug discovery” (Cell Chemical Biology, 2021).

Holding throughout (test): biochemical
Type in all cases: biochemical

In experiment [1] the target is T1, 382 unique human kinases (Homo sapiens, UniProt Q96PN8).
T1 construct: purchased Reaction Biology (HotSpot contract assay)
T1 sequence (Q96PN8 1-268): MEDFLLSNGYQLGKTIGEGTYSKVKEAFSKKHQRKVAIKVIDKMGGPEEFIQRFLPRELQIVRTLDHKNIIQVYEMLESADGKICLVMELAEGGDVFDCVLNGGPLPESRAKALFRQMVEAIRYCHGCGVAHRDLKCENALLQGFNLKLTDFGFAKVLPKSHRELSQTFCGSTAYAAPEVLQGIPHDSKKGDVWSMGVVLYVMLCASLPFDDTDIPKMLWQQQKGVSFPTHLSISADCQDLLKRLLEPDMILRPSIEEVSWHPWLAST
As to conditions: kinase TSSK3/STK22C, compound 10 uM; for remaining activity at 10 µM: read-out: % Enzyme Activity (relative to DMSO controls).

The target in experiment [2] is T2, 382 unique human kinases (Homo sapiens, UniProt Q8NE63).
T2 construct: purchased Reaction Biology (HotSpot contract assay)
T2 sequence (Q8NE63 1-616): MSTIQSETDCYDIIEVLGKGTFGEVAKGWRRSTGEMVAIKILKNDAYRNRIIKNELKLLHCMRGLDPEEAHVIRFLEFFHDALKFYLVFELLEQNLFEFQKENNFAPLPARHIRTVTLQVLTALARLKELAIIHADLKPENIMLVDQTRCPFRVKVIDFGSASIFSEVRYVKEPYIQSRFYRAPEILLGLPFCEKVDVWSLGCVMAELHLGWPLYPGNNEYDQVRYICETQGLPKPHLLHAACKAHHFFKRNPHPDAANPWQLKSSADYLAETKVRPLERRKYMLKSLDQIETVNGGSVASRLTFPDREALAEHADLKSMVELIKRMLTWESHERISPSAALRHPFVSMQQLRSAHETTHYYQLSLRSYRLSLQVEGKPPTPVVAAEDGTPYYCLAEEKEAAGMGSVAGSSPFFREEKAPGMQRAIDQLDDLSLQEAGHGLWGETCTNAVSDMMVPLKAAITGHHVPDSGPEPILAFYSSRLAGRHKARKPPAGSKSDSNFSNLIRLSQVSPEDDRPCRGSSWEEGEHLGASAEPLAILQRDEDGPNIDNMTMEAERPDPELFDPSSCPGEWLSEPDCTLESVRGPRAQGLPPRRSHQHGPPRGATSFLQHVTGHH
As to conditions: HIPK4, 10 uM; for remaining activity at 10 µM: read-out: % Enzyme Activity (relative to DMSO controls).

For experiment [3], the target named is T3, 382 unique human kinases (Homo sapiens, UniProt P43403).
T3 construct: purchased Reaction Biology (HotSpot contract assay)
T3 sequence (P43403 1-619): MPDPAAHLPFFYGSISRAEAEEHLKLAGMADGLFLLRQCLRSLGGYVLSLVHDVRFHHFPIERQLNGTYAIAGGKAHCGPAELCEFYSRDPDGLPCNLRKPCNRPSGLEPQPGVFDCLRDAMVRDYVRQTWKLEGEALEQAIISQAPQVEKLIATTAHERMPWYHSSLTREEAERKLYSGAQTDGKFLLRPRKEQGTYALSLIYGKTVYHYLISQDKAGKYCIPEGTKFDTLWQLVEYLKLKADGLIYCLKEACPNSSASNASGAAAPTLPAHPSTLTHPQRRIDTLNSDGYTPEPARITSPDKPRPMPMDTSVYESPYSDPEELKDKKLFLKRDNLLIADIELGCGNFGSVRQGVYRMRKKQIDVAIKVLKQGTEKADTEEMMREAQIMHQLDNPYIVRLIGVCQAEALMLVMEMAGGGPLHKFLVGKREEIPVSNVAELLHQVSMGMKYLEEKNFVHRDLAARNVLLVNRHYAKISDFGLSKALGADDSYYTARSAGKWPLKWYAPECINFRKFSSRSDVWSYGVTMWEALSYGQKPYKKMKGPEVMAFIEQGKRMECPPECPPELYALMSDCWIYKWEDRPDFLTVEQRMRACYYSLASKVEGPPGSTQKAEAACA
As to conditions: ZAP70, compound at 10 uM, duplicate values; for remaining activity at 10 µM: read-out: % Enzyme Activity (relative to DMSO controls).

Experiment [4] deals with T4, 382 unique human kinases (Homo sapiens, UniProt Q8IVH8).
T4 construct: purchased Reaction Biology (HotSpot contract assay)
T4 sequence (Q8IVH8 1-894): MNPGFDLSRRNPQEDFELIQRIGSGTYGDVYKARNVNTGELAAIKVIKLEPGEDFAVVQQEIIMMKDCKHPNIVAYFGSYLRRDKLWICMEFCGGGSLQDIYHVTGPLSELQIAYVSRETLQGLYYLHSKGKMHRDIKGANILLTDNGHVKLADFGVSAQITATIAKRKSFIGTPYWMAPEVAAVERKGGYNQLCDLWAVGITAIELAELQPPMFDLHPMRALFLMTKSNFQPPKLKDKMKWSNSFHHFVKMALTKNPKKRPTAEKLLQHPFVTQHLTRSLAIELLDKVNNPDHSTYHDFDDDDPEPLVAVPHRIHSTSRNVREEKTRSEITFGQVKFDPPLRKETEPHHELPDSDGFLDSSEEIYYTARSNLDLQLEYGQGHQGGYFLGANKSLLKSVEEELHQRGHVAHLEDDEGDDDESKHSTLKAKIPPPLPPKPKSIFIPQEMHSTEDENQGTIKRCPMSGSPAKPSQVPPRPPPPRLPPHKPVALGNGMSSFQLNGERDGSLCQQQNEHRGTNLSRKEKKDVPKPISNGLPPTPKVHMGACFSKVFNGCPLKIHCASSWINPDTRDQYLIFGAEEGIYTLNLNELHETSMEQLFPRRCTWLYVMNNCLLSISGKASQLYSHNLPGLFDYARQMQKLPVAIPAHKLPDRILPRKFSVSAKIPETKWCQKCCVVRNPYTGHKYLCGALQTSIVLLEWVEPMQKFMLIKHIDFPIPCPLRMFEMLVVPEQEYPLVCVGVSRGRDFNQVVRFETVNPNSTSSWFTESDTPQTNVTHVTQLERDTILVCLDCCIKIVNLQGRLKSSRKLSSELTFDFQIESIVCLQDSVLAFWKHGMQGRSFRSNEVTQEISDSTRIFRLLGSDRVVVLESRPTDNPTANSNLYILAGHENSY
As to conditions: kinase GLK/MAP4K3, compound 10 uM; for remaining activity at 10 µM: read-out: % Enzyme Activity (relative to DMSO controls).

Experiment [5] addresses T5, 382 unique human kinases (Homo sapiens, UniProt Q96NX5).
T5 construct: purchased Reaction Biology (HotSpot contract assay)
The note with it: kinase CAMK1g, compound 10 uM; for remaining activity at 10 µM: read-out: % Enzyme Activity (relative to DMSO controls).

In experiment [6] the target is T6, 382 unique human kinases (Homo sapiens, UniProt P08581, Y1235D).
T6 construct: purchased Reaction Biology (HotSpot contract assay)
As to conditions: c-MET (Y1235D), 10 uM; for remaining activity at 10 µM: read-out: % Enzyme Activity (relative to DMSO controls).

The target of experiment [7] is T7, 382 unique human kinases (Homo sapiens, UniProt P07949, V778I).
T7 construct: purchased Reaction Biology (HotSpot contract assay)
T7 sequence (P07949 29-1114 V778I): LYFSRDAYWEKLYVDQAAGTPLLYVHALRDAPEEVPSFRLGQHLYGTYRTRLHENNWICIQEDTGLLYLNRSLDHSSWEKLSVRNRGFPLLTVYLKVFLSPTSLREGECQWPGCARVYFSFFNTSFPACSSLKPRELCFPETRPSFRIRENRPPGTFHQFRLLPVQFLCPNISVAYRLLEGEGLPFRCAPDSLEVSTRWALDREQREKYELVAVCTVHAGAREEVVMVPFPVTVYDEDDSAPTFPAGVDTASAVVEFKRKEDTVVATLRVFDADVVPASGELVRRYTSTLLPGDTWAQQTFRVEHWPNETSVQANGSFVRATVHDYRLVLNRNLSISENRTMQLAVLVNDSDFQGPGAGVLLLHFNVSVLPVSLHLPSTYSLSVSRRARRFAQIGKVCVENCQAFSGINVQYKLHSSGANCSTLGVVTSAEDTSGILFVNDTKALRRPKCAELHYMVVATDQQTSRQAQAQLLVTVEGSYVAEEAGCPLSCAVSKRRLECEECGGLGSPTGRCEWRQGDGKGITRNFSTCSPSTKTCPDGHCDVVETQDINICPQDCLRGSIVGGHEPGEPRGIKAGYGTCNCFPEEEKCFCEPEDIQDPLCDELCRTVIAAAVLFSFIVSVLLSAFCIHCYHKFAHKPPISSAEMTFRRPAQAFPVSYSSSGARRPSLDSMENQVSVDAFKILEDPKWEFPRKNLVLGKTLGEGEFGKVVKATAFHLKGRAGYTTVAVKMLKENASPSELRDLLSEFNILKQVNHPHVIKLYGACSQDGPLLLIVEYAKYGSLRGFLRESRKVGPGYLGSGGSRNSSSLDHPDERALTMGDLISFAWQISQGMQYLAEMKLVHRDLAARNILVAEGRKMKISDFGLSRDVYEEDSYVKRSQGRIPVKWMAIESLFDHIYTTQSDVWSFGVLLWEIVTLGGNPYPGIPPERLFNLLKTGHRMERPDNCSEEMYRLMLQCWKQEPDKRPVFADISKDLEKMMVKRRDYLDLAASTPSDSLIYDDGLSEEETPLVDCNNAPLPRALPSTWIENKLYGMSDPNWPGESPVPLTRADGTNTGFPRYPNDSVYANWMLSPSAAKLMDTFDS
As to conditions: RET (V778I), [ATP] 10 µM, compound 10 uM; for remaining activity at 10 µM: read-out: % Enzyme Activity (relative to DMSO controls).

Experiment [8] addresses T8, 382 unique human kinases (Homo sapiens, UniProt P21802, V564F).
T8 construct: purchased Reaction Biology (HotSpot contract assay)
The note with it: FGFR2 (V564F), [ATP] 30 µM, compound 10 uM; for remaining activity at 10 µM: read-out: % Enzyme Activity (relative to DMSO controls).

SMILES strings stand for the structures.

T8 sequence (P21802 22-821 V564F): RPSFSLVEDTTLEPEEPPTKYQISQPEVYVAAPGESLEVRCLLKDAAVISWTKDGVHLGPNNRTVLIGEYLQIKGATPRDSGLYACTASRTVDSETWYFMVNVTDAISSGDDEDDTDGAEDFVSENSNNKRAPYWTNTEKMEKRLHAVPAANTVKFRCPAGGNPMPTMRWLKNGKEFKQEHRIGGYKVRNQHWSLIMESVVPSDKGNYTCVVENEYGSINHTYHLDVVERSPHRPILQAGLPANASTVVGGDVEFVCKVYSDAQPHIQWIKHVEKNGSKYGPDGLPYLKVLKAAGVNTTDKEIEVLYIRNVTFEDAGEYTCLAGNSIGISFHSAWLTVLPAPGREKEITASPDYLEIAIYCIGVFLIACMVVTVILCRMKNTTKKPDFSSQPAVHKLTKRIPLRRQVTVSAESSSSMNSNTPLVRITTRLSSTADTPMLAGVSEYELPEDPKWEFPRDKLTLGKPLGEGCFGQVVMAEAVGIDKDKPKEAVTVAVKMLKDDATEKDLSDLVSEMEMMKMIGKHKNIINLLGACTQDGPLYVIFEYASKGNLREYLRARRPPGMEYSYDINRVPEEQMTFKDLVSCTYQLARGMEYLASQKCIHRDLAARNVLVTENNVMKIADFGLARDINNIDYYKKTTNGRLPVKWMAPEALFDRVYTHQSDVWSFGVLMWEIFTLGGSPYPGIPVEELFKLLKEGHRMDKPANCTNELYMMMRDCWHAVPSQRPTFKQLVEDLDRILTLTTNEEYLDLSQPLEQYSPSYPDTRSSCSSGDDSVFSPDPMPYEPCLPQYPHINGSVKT
T5 sequence (Q96NX5 whole entry): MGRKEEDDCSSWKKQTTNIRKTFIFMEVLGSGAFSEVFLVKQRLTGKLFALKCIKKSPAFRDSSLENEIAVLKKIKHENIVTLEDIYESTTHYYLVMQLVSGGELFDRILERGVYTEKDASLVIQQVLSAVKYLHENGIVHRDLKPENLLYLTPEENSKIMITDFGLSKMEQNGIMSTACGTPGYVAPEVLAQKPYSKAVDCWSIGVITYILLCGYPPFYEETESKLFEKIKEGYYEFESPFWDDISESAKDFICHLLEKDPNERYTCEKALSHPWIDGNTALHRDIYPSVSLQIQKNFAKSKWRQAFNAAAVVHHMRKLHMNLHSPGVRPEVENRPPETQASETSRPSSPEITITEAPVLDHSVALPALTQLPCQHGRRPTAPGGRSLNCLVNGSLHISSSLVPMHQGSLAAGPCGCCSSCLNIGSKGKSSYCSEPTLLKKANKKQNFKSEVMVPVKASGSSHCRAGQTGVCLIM

For the molecule `CC(C)c1cc(-c2n[nH]c(=O)n2-c2ccc3c(ccn3C)c2)c(O)cc1O` [Ganetespib (STA9090)], the remaining activity at 10 µM in experiment [1] was determined as 93.1%; in experiment [2], 64.4%; in experiment [3] it was 108%; in experiment [4], 89.8%; in experiment [5] it was 86.8%; in experiment [6], 102%.
With `CC(C)c1cc(-c2n[nH]c(=O)n2-c2ccc3c(ccn3C)c2)c(O)cc1O` [Ganetespib], the remaining activity at 10 µM came to 56.4% in experiment [7] and 41.2% in experiment [8].
Turning to `CCNC(=O)c1noc(-c2cc(C(C)C)c(O)cc2O)c1-c1ccc(CN2CCOCC2)cc1` [Luminespib (AUY-922)], the “% Enzyme Activity (relative to DMSO controls)” value came to 144.69% in experiment [1]; 88.32% in experiment [2]; 104.43% in experiment [3]; 86.46% in experiment [4]; 93.84% in experiment [5]; 71.05% in experiment [6]. Further, the remaining activity at 10 µM in experiment [1] was determined as 147%; in experiment [2], 88.8%; in experiment [3], 105%; in experiment [4], 87.1%; in experiment [5], 97.8%; in experiment [6], 73.3%.
For `CCNC(=O)c1noc(-c2cc(C(C)C)c(O)cc2O)c1-c1ccc(CN2CCOCC2)cc1` [Luminespib], in experiment [7], the “% Enzyme Activity (relative to DMSO controls)” value is 105.36% and the remaining activity at 10 µM worked out at 111%. Besides, in experiment [8], the “% Enzyme Activity (relative to DMSO controls)” value worked out at 98.77% and the remaining activity at 10 µM turned out to be 99.4%.
